Data as given in the supplement of paper PMC11061612.

Legend:
Assay in all cases: Bliss excess, mean over the matrix (fraction); higher = more synergy
[1] = system: CAL-62 (Thyroid Gland Carcinoma)
In short: (§1)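 Cell lines in DMEM/F12 or RPMI with 10% FBS were plated in 1536-well plates, held 24 hours at 37°C, 5% CO2, then given two-drug dose matrices for 72 hours (DMSO typically 0.2%). Viability was read by CellTiter-Glo 2.0 luminescence and scaled as inhibition from 0 (vehicle wells) to 1 (blank wells). Combination Emax is the second-highest inhibition in the matrix; Bliss excess is observed combination effect minus expected EA + EB − EA·EB, EA and EB being single-agent effects.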

[2] = system: OVMIU (Ovarian Carcinoma)
In short: as §1

[3] = system: SU-DHL-10 (B-Cell Non-Hodgkin's Lymphoma)
In short: as §1

[4] = system: RERF-GC-1B (Gastric Carcinoma)
In short: as §1

[5] = system: LXF-289 (Lung Adenocarcinoma)
In short: as §1

[6] = system: TE-8 (Esophageal Squamous Cell Carcinoma)
In short: as §1

[7] = system: RCM-1 (Colorectal Carcinoma)
In short: as §1

[8] = system: 23132-87 (Gastric Carcinoma)
In short: as §1

[9] = system: PSN1 (Pancreatic Carcinoma)
In short: as §1

[10] = system: HSC-39 (Gastric Carcinoma)
In short: as §1

[11] = system: HCT-15 (Colorectal Carcinoma)
In short: as §1

[12] = system: OPM-2 (Plasma Cell Myeloma)
In short: as §1

[13] = system: L-1236 (Hodgkin's Lymphoma)
In short: as §1

[14] = system: REH (B-Lymphoblastic Leukemia)
In short: as §1

GB-1 (Glioblastoma) = system: GB-1 (Glioblastoma)
In short: as §1

WM278 (Melanoma) = system: WM278 (Melanoma)
In short: as §1

[15] = system: VAL (B-Cell Non-Hodgkin's Lymphoma)
In short: as §1

[16] = system: LB996-RCC (Kidney Carcinoma)
In short: as §1

[17] = system: CAL-120 (Breast Carcinoma)
In short: as §1

[18] = system: RKN (Other Solid Carcinomas)
In short: as §1

SMILES | Bliss excess [1] | Bliss excess [2] | Bliss excess [3] | Bliss excess [4] | Bliss excess [5] | Bliss excess [6] | Bliss excess [7] | Bliss excess [8] | Bliss excess [9] | Bliss excess [10] | Bliss excess [11] | Bliss excess [12] | Bliss excess [13] | Bliss excess [14] | Bliss excess (GB-1 (Glioblastoma)) | Bliss excess (WM278 (Melanoma)) | Bliss excess [15] | Bliss excess [16] | Bliss excess [17] | Bliss excess [18]
COc1nnc2ccc(N3CCC(c4ccc(OCCN5CCN(C)C(=O)[C@H]5C)cc4)CC3)nn12 [AZD5153] + CCN(CCO)CCCOc1ccc2c(Nc3cc(CC(=O)Nc4cccc(F)c4)[nH]n3)ncnc2c1 [AZD2811] (first compound max 1 µM, 7x7, partner max 1 µM) | -0.0497 | -0.0733 | -0.049 | -0.096 | 0.0227 | -0.0152 | -0.03 | -0.0223 | 0.0384 | -0.006 | -0.0143 | 0.0194 | -0.027 | -0.0891 | -0.0787 | -0.0654 | -0.0945 | -0.106 | 0.0045 | -0.0286
COc1nnc2ccc(N3CCC(c4ccc(OCCN5CCN(C)C(=O)[C@H]5C)cc4)CC3)nn12 [AZD5153] + C[C@@H]1COCCN1C2=NC(=NC(=C2)C3(CC3)[S@](=N)(=O)C)C4=C5C=CNC5=NC=C4 [AZD6738] (first compound max 1 µM, 7x7, partner max 10 µM) | -0.0082 | -0.0208 | -0.038 | 0.0429 | 0.0681 | 0.0176 | -0.115 | 0.0394 | 0.0171 | -0.0055 | 0.0267 | -0.0245 | -0.0093 | -0.0059 | 0.0446 | 0.0507 | -0.111 | -0.0142 | 0.0309 | -0.0757
COc1nnc2ccc(N3CCC(c4ccc(OCCN5CCN(C)C(=O)[C@H]5C)cc4)CC3)nn12 [AZD5153] + Cc1c2c(nn1C)CSCc1cc(n(C)n1)CSc1cc(c3ccccc3c1)OCCCc1c(C(=O)O)n(C)c3c-2c(Cl)ccc13 [AZD5991] (first compound max 1 µM, 7x7, partner max 1 µM) | -0.057 | -0.0072 | -0.03 | 0.0602 | 0.0019 | 0.0322 | -0.0512 | 0.0791 | -0.0263 | 0.0135 | -0.0709 | -0.0062 | 0.0283 | -0.0621 | -0.0513 | -0.0929 | -0.112 | 0.0015 | 0.0048 | -0.0692
COc1nnc2ccc(N3CCC(c4ccc(OCCN5CCN(C)C(=O)[C@H]5C)cc4)CC3)nn12 [AZD5153] + Cn1cnc2c(F)c(Nc3ccc(Br)cc3Cl)c(C(=O)NOCCO)cc21 [Selumetinib] (first compound max 1 µM, 7x7, partner max 10 µM) | 0.0286 | -0.0452 | 0.0107 | 0.0579 | -0.0468 | 0.032 | -0.008 | -0.036 | 0.0717 | -0.0013 | 0.0243 | -0.0136 | -0.0252 | -0.0495 | -0.035 | -0.0471 | -0.0157 | -0.0728 | 0.0386 | -0.0073
Cc1c2c(nn1C)CSCc1cc(n(C)n1)CSc1cc(c3ccccc3c1)OCCCc1c(C(=O)O)n(C)c3c-2c(Cl)ccc13 [AZD5991] + C=CCn1c(=O)c2cnc(Nc3ccc(N4CCN(C)CC4)cc3)nc2n1-c1cccc(C(C)(C)O)n1 [AZD1775] (first compound max 1 µM, partner max 1 µM) | -0.0385 | 0.0145 | 0.0259 | 0.0041 | -0.029 | -0.058 | -0.0271 | 0.0274 | -0.0694 | 0.0058 | -0.0306 | -0.0119 | -0.0319 | -0.112 | 0.0148 | 0.0438 | -0.114 | -0.008 | -0.0143 | -0.0446
Cc1c2c(nn1C)CSCc1cc(n(C)n1)CSc1cc(c3ccccc3c1)OCCCc1c(C(=O)O)n(C)c3c-2c(Cl)ccc13 [AZD5991] + CC1(C)CCC(CN2CCN(c3ccc(C(=O)NS(=O)(=O)c4ccc(NCC5CCOCC5)c([N+](=O)[O-])c4)c(Oc4cnc5[nH]ccc5c4)c3)CC2)=C(c2ccc(Cl)cc2)C1 [Venetoclax] (first compound max 1 µM, 7x7, partner max 1 µM) | -0.0325 | -0.0207 | -0.0173 | -0.0126 | 0.0108 | 0.0098 | 0.0136 | 0.0019 | -0.0873 | 0.0266 | -0.0087 | 0.0217 | 0.0632 | 0.206 | -0.0257 | -0.0393 | 0.0963 | -0.0251 | -0.0284 | -0.0337
Cc1c2c(nn1C)CSCc1cc(n(C)n1)CSc1cc(c3ccccc3c1)OCCCc1c(C(=O)O)n(C)c3c-2c(Cl)ccc13 [AZD5991] + CCN(CCO)CCCOc1ccc2c(Nc3cc(CC(=O)Nc4cccc(F)c4)[nH]n3)ncnc2c1 [AZD2811] (first compound max 1 µM, 7x7, partner max 1 µM) | 0.0397 | -0.099 | -0.0133 | 0.014 | 0.0912 | -0.0138 | -0.0249 | -0.0075 | -0.0467 | 0.0233 | 0.0432 | 0.0578 | 0.0255 | 0.0422 | -0.0318 | 0.0657 | -0.0541 | -0.0388 | -0.0077 | -0.0015
Cc1c2c(nn1C)CSCc1cc(n(C)n1)CSc1cc(c3ccccc3c1)OCCCc1c(C(=O)O)n(C)c3c-2c(Cl)ccc13 [AZD5991] + Cc1cc2ncnn2cc1Nc1ncc2c(n1)n(C1CCOCC1)c(=O)n2C [AZD7648] (first compound max 1 µM, 7x7, partner max 10 µM) | -0.0187 | -0.091 | 0.0328 | -0.0085 | -0.0889 | -0.069 | -0.0149 | -0.0679 | -0.0628 | 0.0095 | -0.0354 | -0.0357 | 0.0299 | -0.0082 | -0.0429 | -0.0428 | -0.0356 | -0.0662 | -0.0059 | -0.0151
Cc1c2c(nn1C)CSCc1cc(n(C)n1)CSc1cc(c3ccccc3c1)OCCCc1c(C(=O)O)n(C)c3c-2c(Cl)ccc13 [AZD5991] + Cn1cnc2c(F)c(Nc3ccc(Br)cc3Cl)c(C(=O)NOCCO)cc21 [Selumetinib] (first compound max 1 µM, 7x7, partner max 3 µM) | -0.0174 | -0.0284 | -0.021 | 0.034 | 0.0414 | -0.0435 | 0.0025 | 0.0334 | 0.0011 | 0.0118 | 0.0116 | 0.0231 | 0 | -0.0302 | -0.0299 | 0.0368 | -0.0227 | 0.0053 | -0.0105 | -0.0147
C[C@@H]1COCCN1c1cc(C2([S@](C)(=N)=O)CC2)nc(-c2ccnc3[nH]ccc23)n1 [AZD6738] + O=C(c1cc(Cc2n[nH]c(=O)c3ccccc23)ccc1F)N1CCN(C(=O)C2CC2)CC1 [Olaparib] (first compound max 10 µM, 7x7, partner max 10 µM) | 0.0428 | -0.0083 | -0.0235 | -0.0439 | -0.0371 | -0.0218 | -0.101 | 0.0507 | -0.0122 | 0.025 | 0.0151 | -0.0339 | -0.0033 | 0.0021 | 0.012 | -0.0488 | -0.0708 | 0.0143 | 0.0364 | -0.007
Cc1cc2ncnn2cc1Nc1ncc2c(n1)n(C1CCOCC1)c(=O)n2C [AZD7648] + C=CCn1c(=O)c2cnc(Nc3ccc(N4CCN(C)CC4)cc3)nc2n1-c1cccc(C(C)(C)O)n1 [AZD1775] (first compound max 10 µM, partner max 1 µM) | 0.0057 | 0.0747 | -0.0191 | -0.0936 | -0.0396 | 0.0308 | 0.0248 | -0.0401 | -0.0577 | -0.0357 | -0.055 | -0.0006 | -0.0686 | -0.06 | 0.0089 | -0.027 | -0.0919 | -0.0252 | 0.0463 | 0.0089
Cc1cc2ncnn2cc1Nc1ncc2c(n1)n(C1CCOCC1)c(=O)n2C [AZD7648] + CCN(CCO)CCCOc1ccc2c(Nc3cc(CC(=O)Nc4cccc(F)c4)[nH]n3)ncnc2c1 [AZD2811] (first compound max 10 µM, 7x7, partner max 1 µM) | 0.0427 | -0.0159 | -0.0765 | 0.0209 | 0.0397 | 0.0717 | -0.032 | -0.0151 | -0.0218 | -0.0371 | -0.003 | 0.0791 | -0.0089 | -0.0541 | -0.0124 | -0.0081 | -0.0799 | -0.0098 | -0.0528 | -0.0148
Cc1cc2ncnn2cc1Nc1ncc2c(n1)n(C1CCOCC1)c(=O)n2C [AZD7648] + CN(C)CCCOc1ccc(-c2ccc3ncc4c(c3c2)n(C2CCOCC2)c(=O)n4C)cn1 [AZD0156] (first compound max 10 µM, 7x7, partner max 1 µM) | 0.0145 | -0.0068 | 0.001 | -0.0141 | 0.034 | -0.0453 | -0.0041 | -0.0108 | -0.0413 | -0.036 | -0.019 | -0.0303 | 0.0025 | -0.113 | -0.0089 | -0.0295 | -0.0921 | -0.0542 | -0.0197 | -0.0352
Cc1cc2ncnn2cc1Nc1ncc2c(n1)n(C1CCOCC1)c(=O)n2C [AZD7648] + C[C@@H]1COCCN1C2=NC(=NC(=C2)C3(CC3)[S@](=N)(=O)C)C4=C5C=CNC5=NC=C4 [AZD6738] (first compound max 10 µM, 7x7, partner max 10 µM) | 0.0264 | 0.0527 | -0.0398 | 0.0094 | 0.0315 | -0.0122 | 0.0223 | -0.0027 | -0.0939 | 0.0166 | -0.0312 | 0.0254 | 0.0434 | -0.0088 | -0.017 | 0.0112 | -0.0813 | -0.0199 | 0.0192 | 0.0086
Cc1cc2ncnn2cc1Nc1ncc2c(n1)n(C1CCOCC1)c(=O)n2C [AZD7648] + O=C(c1cc(Cc2n[nH]c(=O)c3ccccc23)ccc1F)N1CCN(C(=O)C2CC2)CC1 [Olaparib] (first compound max 10 µM, 7x7, partner max 10 µM) | -0.03 | -0.0945 | -0.0164 | -0.076 | -0.0504 | -0.0413 | -0.0789 | 0.003 | -0.0315 | -0.0083 | 0.0666 | -0.0373 | -0.0394 | -0.0373 | -0.0227 | -0.0309 | 0.0295 | -0.0152 | -0.0322 | -0.021
